The values that follow come from ChEMBL document CHEMBL1123343, “5-(Halomethyl)-2-pyranones as irreversible inhibitors of alpha-chymotrypsin” (J Med Chem, 1986).

Experiment [1] deals with T1, Chymotrypsin-C (Homo sapiens) (UniProt Q99895).
T1 sequence (whole entry): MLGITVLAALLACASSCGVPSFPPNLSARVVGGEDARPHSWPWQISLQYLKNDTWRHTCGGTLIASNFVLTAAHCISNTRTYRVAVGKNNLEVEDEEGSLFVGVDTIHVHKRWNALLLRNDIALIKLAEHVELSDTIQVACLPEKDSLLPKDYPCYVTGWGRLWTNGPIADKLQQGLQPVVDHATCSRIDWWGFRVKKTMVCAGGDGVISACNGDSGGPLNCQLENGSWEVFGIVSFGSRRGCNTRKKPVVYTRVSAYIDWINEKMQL
The experiment in a line: Inactivation efficiency (I/E) was determined by incubating different ratios of pyrone and […] for 18 hr and then assaying the surviving enzyme activity; NI=No inactivation.

Experiment [2] deals with T1, Chymotrypsin-C (Homo sapiens).
Description: Inactivation rate constant (kinact) was determined by exposing Chymotrypsinogen to different concentrations of the purine and periodically diluting aliquots into an assay medium containing one of the chromogenic substrates; NI=No inactivation
The target in the next experiment is T2, Chymotrypsin-C (Homo sapiens, UniProt Q99895).
T2 sequence (Q99895 whole entry): T1 sequence (whole entry)
The experiment is described as follows: Compound was tested for inhibition against alpha-chymotrypsin using N-acetyl tyrosine p-nitrophenyl ester; WI=Weak inhibition.

For experiment [3], the target named is T1, Chymotrypsin-C (Homo sapiens). The source holds these as a separate data set.
Description: Inactivation efficiency (I/E) was determined by incubating different ratios of pyrone and chymotrypsin for 18 hr and then assaying the surviving enzyme activity; NI=No inactivation
Experiment [4] shares this target. The experiment is described as follows: Inactivation rate constant (kinact) was determined by exposing chymotrypsin to different concentrations of the […] and periodically diluting aliquots into an assay medium containing one of the […].
Experiment [5] has the same target. The source holds these as a separate data set.
Description: Inactivation efficiency (I/E) was determined by incubating different ratios of pyrone and chymotrypsin for 18 h and then assaying the surviving Chymotrypsinogen enzyme activity

In the case of `Cc1oc(=O)c(Cc2cccc3ccccc23)cc1CCl`, in experiment [1], the I/E entry is “No inactivation”. Besides, the K inact entry in experiment [2] was “No inactivation”. For the same compound, the Ki result at Chymotrypsin-C is on record as “Weak inhibition”.
Consider `O=c1occ(CCl)cc1CCl`, for which the K inact result in experiment [2] is “No inactivation”. Also, the I/E entry in experiment [3] is “No inactivation”. Further, at Chymotrypsin-C, the Ki entry is given as “Weak inhibition”.
In experiment [4], `O=c1occ(CCl)cc1Cc1cccc2ccccc12` showed a K inact of 0.085 min⁻¹. Moreover, the Ki result at Chymotrypsin-C is “Weak inhibition”. The compound further yielded an I/E in experiment [5] of 1.38.
